The assay relates to E. coli ΔemrE mutants. Description: Antimicrobial susceptibility assays of efflux pump deletion mutants. It is filed as cell-based, Escherichia coli. Particulars: ΔemrE mutants in ΔacrAB ΔacrEF background vs parent. As for the experimental part: The PCR mixtures contained 50 ng of E. coli chromosomal DNA, 40 pmol of each primer, 0.2 mM (each) deoxynucleoside triphosphate, 2 mM MgSO4 and 10% (vol/vol) dimethylsufoxide in 1× thermo reaction buffer (New England Biolabs, Mississauga, Ontario, Canada) and were heated for 5 min at 94° C. before the addition of 2 U of Vent DNA polymerase (New England Biolabs) per reaction. The reaction was then processed for 30 cycles of 40 sec: at 94° C., 40 sec at 56° C. and 40 sec at 72° C. before finishing with 10 min at 72° C. The PCR products to be used in each deletion were purified using a Qiaquick™ PCR purification kit (Qiagen Inc.), digested with BamHI and EcoRI or EcoRI and Sail as appropriate, and cloned into EcoRI-SalI-restricted pBluescript II SK(+) via a three-piece ligation. The resultant vectors, pXZL967 and pXZL983, carried deletions in emrE and emrD respectively, as confirmed by restriction analysis and nucleotide sequencing. Digestion of plasmids pXZL967 and pXZL983, with BamHI and SalI released fragments carrying the PCR-generated deletions of emrE (246 bp in-frame deletion), and emrD (1101 bp in-frame deletion), respectively, which were then cloned into BamHI-SalI-restricted pK03, yielding pXZL975, pXZL987, and pXZL1024 (selected on chloramphenicol (30 μg/ml)-containing LB agar at 30° C.). […]

From patent US20050255538A1, “Methods for screening for AcrAB efflux pump inhibitors” (priority 2002, published 2005) come the findings set out here.

SMILES strings stand for the structures.

For the compound `CC[n+]1c(-c2ccccc2)c2cc(N)ccc2c2ccc(N)cc21` [ethidium bromide], the “fold increase in MIC values (more susceptible)” value is 32 fold.
